Data set [1] concerns the target Kv11.1 (hERG) (Homo sapiens (Human), UniProt Q12809). Description: Kv11.1 (hERG) ion channel activity (patch clamp assay), HEK293 cells transfected with hERG gene. (The hERG channel carries a current that helps repolarise heart muscle cells.)
The target in data set [2] is DNA-PK (Homo sapiens (Human), UniProt P78527). Description: DNA-PK assay (biochemical), flashplate 33P-ATP kinase assay. The method, boiled down:
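Radiometric kinase reaction in streptavidin-coated flashplates, stopped with 200 mM EDTA, then 30 min room-temperature incubation and saline washes.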

The target in data set [3] is DNA-PK phosphorylation at serine 2056 (Homo sapiens (Human), UniProt P78527). Nature of the data set: DNA-PK phosphorylation at serine 2056 (cellular), bleomycin-treated HCT116 cells, ELISA. The format is cell-based. The conditions noted are these: read-out: IC50 pDNA-PK. Summed up:
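After overnight seeding, HCT116 cells received compound with 10 μM bleomycin for 6 h; phospho-DNA-PK ELISA signals were scaled to total DNA-PKcs, DMSO serving as blank.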
In general terms: In an ELISA, binding on a coated surface is turned into a signal by an enzyme label.

[4] abbreviates: read-out: Ki [Kv1.11 hERG], patch clamp, HEK293 transfected with hERG gene.
The mark [5] stands for this setting: cellular, HCT116 cells, 10 μM bleomycin, six hours.
Setting [6] is: read-out: Ki [Kv1.11 hERG], hERG patch clamp assay (cells without asterisk).
The mark [7] stands for this setting: cellular DNA-PK phosphorylation at serine 2056, HCT116.
Where [8] appears, read: Ki [Kv1.11 hERG], hERG patch clamp assay (cells without asterisk).
Where [9] appears, read: Ki [Kv1.11 hERG], patch clamp, HEK293 transfected with hERG gene.

pIC50, pKi: −log10 of the molar value. Like-named read-outs stand apart in the source and are kept apart here.

Kv11.1 (hERG), sequence (Q12809 whole entry): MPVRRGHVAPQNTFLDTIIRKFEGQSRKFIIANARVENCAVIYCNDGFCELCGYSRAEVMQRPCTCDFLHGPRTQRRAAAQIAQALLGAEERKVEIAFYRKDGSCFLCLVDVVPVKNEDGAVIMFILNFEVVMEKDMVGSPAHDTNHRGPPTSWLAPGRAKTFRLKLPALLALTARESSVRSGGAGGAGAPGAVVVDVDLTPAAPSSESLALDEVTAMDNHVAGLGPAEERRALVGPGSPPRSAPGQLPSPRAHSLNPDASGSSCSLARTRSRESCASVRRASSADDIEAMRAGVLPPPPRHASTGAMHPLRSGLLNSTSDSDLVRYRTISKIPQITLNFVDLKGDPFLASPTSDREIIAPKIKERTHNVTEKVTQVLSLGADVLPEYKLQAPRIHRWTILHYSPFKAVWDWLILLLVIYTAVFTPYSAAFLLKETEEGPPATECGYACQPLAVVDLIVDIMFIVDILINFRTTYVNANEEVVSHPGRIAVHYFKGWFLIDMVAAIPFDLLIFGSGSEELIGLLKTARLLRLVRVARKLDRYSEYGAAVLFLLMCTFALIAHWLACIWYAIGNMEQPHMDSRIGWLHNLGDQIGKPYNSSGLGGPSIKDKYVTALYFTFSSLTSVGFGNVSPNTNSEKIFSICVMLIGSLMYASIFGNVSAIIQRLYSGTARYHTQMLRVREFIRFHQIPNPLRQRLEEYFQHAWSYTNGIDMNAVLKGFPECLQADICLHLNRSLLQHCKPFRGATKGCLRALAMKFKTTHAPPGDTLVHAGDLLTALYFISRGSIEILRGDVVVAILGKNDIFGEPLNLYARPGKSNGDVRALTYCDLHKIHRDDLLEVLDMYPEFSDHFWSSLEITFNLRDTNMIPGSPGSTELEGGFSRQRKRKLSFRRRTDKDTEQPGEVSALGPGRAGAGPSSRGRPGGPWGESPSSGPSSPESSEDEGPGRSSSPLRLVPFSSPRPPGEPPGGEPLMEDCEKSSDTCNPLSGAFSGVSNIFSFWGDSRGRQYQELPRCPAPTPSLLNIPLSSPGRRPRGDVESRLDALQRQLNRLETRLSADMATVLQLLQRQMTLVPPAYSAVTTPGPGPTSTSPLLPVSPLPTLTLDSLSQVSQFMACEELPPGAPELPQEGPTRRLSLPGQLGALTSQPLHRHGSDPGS

On to `COc1cc(Cl)nnc1C(O)c1ccc(F)c(-c2ncnc3cc(N4CCOCC4)ccc23)c1` (stereo not drawn) [Example 10, (6-Chloro-4-methoxy-pyridazin-3-yl)-[4-fluoro-3-(7-morpholin-4-yl-quinazolin-4-yl)phenyl]-methanol], for which the pKi in data set [1] (setting [4]) was less than 4.60. Further, the negative logarithm of the IC50 (pIC50) was 8.15 to 8.52 in data set [2] (enzymatic, 5 μM ATP) and more than 6.30 in data set [3] (setting [5]).
Turning to `Cc1nccnc1C(O)c1cc(-c2ncnc3cc(N4CCOCC4)ccc23)ccc1Cl` (stereo not drawn) [Example 426, [2-Chloro-5-(7-morpholin-4-yl-quinazolin-4-yl)-phenyl]-(3-methyl-pyrazin-2-yl)-methanol], the pKi in data set [1] (setting [6]) is less than 4.60. Further, the pIC50 is 7.52 to 8.15 in data set [2] (biochemical DNA-PK assay) and 5.30 to 6.30 in data set [3] (setting [7]).
With `NC(=O)C(c1cccnn1)c1cc(-c2ncnc3cc(N4CCOCC4)ccc23)c(F)cc1Cl` (stereo not drawn) [Example 300, 2-[2-Chloro-4-fluoro-5-(7-morpholin-4-yl-quinazolin-4-yl)-phenyl]-2-pyridazin-3-ylacetamide], in data set [1] (setting [6]), the pKi was less than 4.60. The figures for the pIC50 in data set [2] (biochemical DNA-PK assay) and in data set [3] (setting [7]) were 7.52 to 8.15 and 4.52 to 5.00, respectively.
Consider `OC(c1ccc(F)c(-c2ncnc3cc(N4CCOCC4)ccc23)c1)c1ncnc2sccc12` (stereo not drawn) [Example 437, [4-Fluoro-3-(7-morpholin-4-yl-quinazolin-4-yl)-phenyl]thieno[2,3-d}-pyrimidin-4-yl-methanol], for which the pKi in data set [1] (setting [8]) was 4.82 to 5.00. Further, the pIC50 in data set [2] (biochemical DNA-PK assay) is more than 8.52; in data set [3] (setting [7]), more than 6.30.
On the same counts, the results for `Cc1ncc(C(O)c2ccc(F)c(-c3ncnc4cc(N5CCOCC5)ccc34)c2)nc1C` (stereo not drawn) [Example 314, (5,6-Dimethyl-pyrazin-2-yl)-[4-fluoro-3-(7-morpholin-4-yl-quinazolin-4-yl)-phenyl]methanol] are 4.60 to 4.82, 7.52 to 8.15 and 5.30 to 6.30.
Consider `OC(c1ccc(F)c(-c2ncnc3cc(N4CCOCC4)ccc23)c1)c1nnc2ccccn12` (stereo not drawn) [Example 399, [4-Fluoro-3-(7-morpholin-4-yl-quinazolin-4-yl)-phenyl]-[1,2,4]-triazolo[4,3-a]pyridin-3-ylmethanol], for which the negative logarithm of the Ki (pKi) in data set [1] (setting [6]) was less than 4.60. In addition, the pIC50 in data set [2] (biochemical DNA-PK assay) is more than 8.52; in data set [3] (setting [7]), 5.30 to 6.30.
Regarding `C#Cc1nc(-c2cc(C(O)c3nccs3)ccc2F)c2ccc(N3CCOCC3)cc2n1` (stereo not drawn) [Example 215, [3-(2-Ethynyl-7-morpholin-4-yl-quinazolin-4-yl)-4-fluorophenyl]-thiazol-2-yl-methanol], the pKi in data set [1] (setting [4]) was more than 5.00. Besides, the pIC50 in data set [2] (enzymatic, 5 μM ATP) was more than 8.52; in data set [3] (setting [5]) it was 5.00 to 5.30.
As to `Cn1c(C(O)c2cc(-c3ncnc4cc(N5CCOCC5)ccc34)ccc2Cl)cccc1=O` (single isomer, unassigned) [Example 363, 6-{[2-Chloro-5-(7-morpholin-4-yl-quinazolin-4-yl)-phenyl]hydroxy-methyl}-1-methyl-1H-pyridin-2-one], the pKi in data set [1] (setting [8]) was 4.60 to 4.82. For the same compound, the pIC50 in data set [2] (biochemical DNA-PK assay) is 7.52 to 8.15; in data set [3] (setting [7]), 5.00 to 5.30.
Turning to `Cn1c(C(O)c2cc(-c3ncnc4cc(N5CCOCC5)ccc34)c(F)cc2F)cccc1=O` (stereo not drawn) [Example 436, 6-{[2,4-Difluoro-5-(7-morpholin-4-yl-quinazolin-4-yl)-phenyl]hydroxy-methyl}-1-methyl-1H-pyridin-2-one], the pKi in data set [1] (setting [6]) was less than 4.60. Further, the pIC50 in data set [2] (biochemical DNA-PK assay) was 8.15 to 8.52; in data set [3] (setting [7]), 5.30 to 6.30.
Take `COc1ccc(C(O)c2cc(-c3ncnc4cc(N5CCOCC5)cnc34)c(F)cc2Cl)nn1` (stereo not drawn) [Example 227, [2-Chloro-4-fluoro-5-(7-morpholin-4-yl-pyrido[3,2-d}-pyrimidin-4-yl)-phenyl]-(6-methoxy-pyridazin-3-yl)-methanol]: the pKi in data set [1] (setting [6]) is less than 4.60. Besides, the figures for the pIC50 in data set [2] (biochemical DNA-PK assay) and in data set [3] (setting [7]) were 8.15 to 8.52 and 5.30 to 6.30, respectively.
In data set [1] (setting [8]), `Cn1ncc2c(C(O)c3cc(-c4ncnc5cc(N6CCOCC6)ccc45)c(F)cc3F)ncnc21` (stereo not drawn) [Example 403, [2,4-Difluoro-5-(7-morpholin-4-yl-quinazolin-4-yl)-phenyl]-(1-methyl-1H-pyrazolo[3,4-d}-pyrimidin-4-yl)-methanol] showed a pKi of 4.60 to 4.82. For the same compound, the pIC50 in data set [2] (biochemical DNA-PK assay) is 8.15 to 8.52; in data set [3] (setting [7]), 5.30 to 6.30.
On to `Cn1nc(C(O)c2cc(-c3ncnc4cc(N5CCOCC5)ccc34)c(F)cc2Cl)ccc1=O` (single isomer, unassigned) [Example 45, 6-{[2-Chloro-4-fluoro-5-(7-morpholin-4-yl-quinazolin-4-yl)phenyl]-hydroxymethyl}-2-methyl-2H-pyridazin-3-one], for which the pKi in data set [1] (setting [4]) was 4.60 to 4.82. In addition, the pIC50 in data set [2] (enzymatic, 5 μM ATP) is more than 8.52; in data set [3] (setting [5]), more than 6.30.
On to `CCn1nc(C(O)c2cc(-c3ncnc4cc(N5CCOCC5)ccc34)c(F)cc2Cl)ccc1=O` (stereo not drawn) [Example 97, 6-{[2-Chloro-4-fluoro-5-(7-morphohn-4-yl-quinazolin-4-yl)phenyl]-hydroxymethyl}-2-ethyl-2H-pyridazin-3-one], for which the pKi in data set [1] (setting [4]) was less than 4.60. Moreover, the pIC50 in data set [2] (enzymatic, 5 μM ATP) is more than 8.52; in data set [3] (setting [5]), 5.30 to 6.30.
Regarding `Cc1nccnc1Cc1ccc(F)c(-c2ncnc3cc(N4CCOCC4)ccc23)c1` [Example 349, 4-[2-Fluoro-5-(3-methyl-pyrazin-2-ylmethyl)phenyl]-7-morpholin-4-yl-quinazoline], the negative logarithm of the Ki (pKi) in data set [1] (setting [6]) was less than 4.60. The pIC50 in data set [2] (biochemical DNA-PK assay) was 8.15 to 8.52; in data set [3] (setting [7]) it was more than 6.30.
`C#CC(O)(c1ccc(OC)nn1)c1cc(-c2ncnc3cc(N4CCOCC4)ccc23)c(F)cc1Cl` (stereo not drawn) [Example 122, 1-[2-Chloro-4-fluoro-5-(7-morpholin-4-yl-quinazolin-4-yl)-phenyl]-1-(6-methoxy-pyridazin-3-yl)-prop-2-yn-1-ol]: the pKi in data set [1] (setting [9]) was 4.82 to 5.00. Further, the pIC50 in data set [2] (enzymatic, 5 μM ATP) is 7.52 to 8.15; in data set [3] (setting [5]) it was 5.30 to 6.30.
Take `COc1cnc(Cl)c(C(O)c2ccc(F)c(-c3ncnc4cc(N5CCOCC5)ccc34)c2)n1` (stereo not drawn) [Example 26, (3-Chloro-6-methoxy-pyrazin-2-yl)-[4-fluoro-3-(7-morpholin-4-yl-quinazolin-4-yl)phenyl]-methanol]: the pKi in data set [1] (setting [4]) is less than 4.60. Also, the pIC50 is more than 8.52 in data set [2] (enzymatic, 5 μM ATP) and more than 6.30 in data set [3] (setting [5]).
As for `OC(c1ccc(F)c(-c2ncnc3cc(N4CCOCC4)ccc23)c1)c1ncccc1OC(F)(F)F` (stereo not drawn) [Example 475, [4-Fluoro-3-(7-morpholin-4-yl-quinazolin-4-yl)-phenyl]-(3-trifluoro-methoxypyridin-2-yl)-methanol], in data set [1] (setting [8]), the pKi is 4.60 to 4.82. Further, the pIC50 in data set [2] (biochemical DNA-PK assay) was more than 8.52; in data set [3] (setting [7]), more than 6.30.
As to `Cn1c(C(O)c2ccc(F)c(-c3ncnc4cc(N5CCOCC5)ccc34)c2)cccc1=O` (stereo not drawn) [Example 376, 6-{[4-Fluoro-3-(7-morpholin-4-yl-quinazolin-4-yl)-phenyl]hydroxy-methyl}-1-methyl-1H-pyridin-2-one], in data set [1] (setting [6]), the pKi was less than 4.60. Further, the values for the pIC50 in data set [2] (biochemical DNA-PK assay) and in data set [3] (setting [7]) were more than 8.52 and more than 6.30, respectively.
`Cc1nccnc1C(O)c1cc(-c2ncnc3cc(N4CCOCC4)ccc23)ccc1F` (stereo not drawn) [Example 393, [2-Fluoro-5-(7-morpholin-4-yl-quinazolin-4-yl)-phenyl]-(3-methyl-pyrazin-2-yl)-methanol] had a pKi in data set [1] (setting [8]) of 4.60 to 4.82. For the same compound, the pIC50 in data set [2] (biochemical DNA-PK assay) is 8.15 to 8.52; in data set [3] (setting [7]), 5.00 to 5.30.
`OC(c1cc(-c2ncnc3cc(N4CCOCC4)ccc23)c(F)cc1Cl)c1nccn2ccnc12` (single isomer, unassigned) [Example 395, [2-Chloro-4-fluoro-5-(7-morpholin-4-yl-quinazolin-4-yl)-phenyl)imidazo-[1,2-a]pyrazin-8-yl-methanol]: in data set [1] (human, HEK293 cells stably transfected with the hERG gene, Ki [Kv1.11 hERG], hERG patch clamp assay (cells without asterisk)), the pKi was 4.60 to 4.82. Moreover, the pIC50 in data set [2] (biochemical DNA-PK assay) was 7.52 to 8.15; in data set [3] (setting [7]), 5.00 to 5.30.
Consider `COc1cnc(C(O)c2ccc(F)c(-c3ncnc4cc(N5CCOCC5)ccc34)c2)c(Cl)c1` (stereo not drawn) [Example 31, (3-Chloro-5-methoxy-pyridin-2-yl)-[4-fluoro-3-(7-morpholin-4-yl-quinazolin-4-yl)phenyl]-methanol], for which the pKi in data set [1] (setting [9]) is 4.82 to 5.00. Besides, the pIC50 in data set [2] (enzymatic, 5 μM ATP) is more than 8.52; in data set [3] (setting [5]), more than 6.30.
Consider `OC(c1cc(-c2ncnc3cc(N4CCOCC4)ccc23)ccc1Cl)c1ncnc2ccoc12` (stereo not drawn) [Example 414, [2-Chloro-5-(7-morpholin-4-yl-quinazolin-4-yl)-phenyl]furo[3,2-d}-pyrimidin-4-yl-methanol], for which, in data set [1] (setting [8]), the pKi is 4.82 to 5.00. In addition, the pIC50 in data set [2] (biochemical DNA-PK assay) was 7.52 to 8.15; in data set [3] (setting [7]), more than 6.30.
In the case of `COc1ccc(C(O)c2ccc(F)c(-c3ncnc4cc(N5CCOCC5)ccc34)c2)nn1` (stereo not drawn) [Example 74, [4-Fluoro-3-(7-morpholin-4-yl-quinazolin-4-yl)phenyl]-(6-methoxypyridazin-3-yl)methanol], in data set [1] (setting [4]), the pKi was less than 4.60. Further, the negative-log IC50 (pIC50) in data set [2] (enzymatic, 5 μM ATP) was more than 8.52; in data set [3] (setting [5]), more than 6.30.
`CCOc1ccc(C(O)c2ccc(F)c(-c3ncnc4cc(N5CCOCC5)ccc34)c2)nn1` (stereo not drawn) [Example 134, (6-Ethoxy-pyridazin-3-yl)-[4-fluoro-3-(7-morpholin-4-yl-quinazolin-4-yl)-phenyl]methanol] gave a pKi in data set [1] (setting [9]) of 4.82 to 5.00. The pIC50 in data set [2] (enzymatic, 5 μM ATP) was 7.52 to 8.15; in data set [3] (setting [5]), 5.30 to 6.30.
The matching figures for `OC(c1ccc(F)c(-c2ncnc3cc(N4CCOCC4)ccc23)c1)c1c(Cl)cncc1Cl` (stereo not drawn) [Example 17, (3,5-Dichloro-pyridin-4-yl)-[4-Fluoro-3-(7-morpholin-4-yl-quinazolin-4-yl)phenyl]-methanol]: 4.82 to 5.00, 8.15 to 8.52 and 5.30 to 6.30.

Usually pKi stands for the Ki on a negative log10 scale, so that one unit is a factor of ten. The pIC50 is the IC50 on a negative log10 scale, so that one unit is a factor of ten.

Values taken from US9732094B2, “Arylquinazolines” (Merck Patent GmbH, priority 2013, dated 2017).
